Reference: paper PMC5338263, “GS-5734 and its parent nucleoside analog inhibit Filo-, Pneumo-, and Paramyxoviruses” (Scientific Reports, 2017)
Entries after “also recorded” stand apart in the source; their conditions may differ. Where two headings read alike, the source gives them in different places.

What was measured:
[1] = tested on: NiV Rec. M-Luc2AM; assay: microbe, parasite or virus in culture; details: Henipavirus nipahense, HeLa
[2] = tested on: CCHF Rec. IbAr 10200; assay: organism not typed; type: cell-based, Crimean Congo Hemorrhagic Fever virus
[3] = tested on: RSV Rec. rgRSV224 (A2); assay: microbe, parasite or virus in culture; details: human respiratory syncytial virus, HeLa
[4] = tested on: EBOV Rec. Mayinga-Gluc; assay: microbe, parasite or virus in culture; details: Zaire ebolavirus, Huh-7
[5] = tested on: EBOV Rec. Makona-ZSG
[6] = tested on: MV Rec. rMV^EZGFP(3); assay: microbe, parasite or virus in culture; details: Measles morbillivirus, HeLa
[7] = tested on: MV Rec. rMV^EZGFP(3)
[8] = tested on: EBOV Rec. Makona-ZSG (Ebola virus); assay: in vitro; details: human
[9] = tested on: TBEV Hypr; assay: microbe, parasite or virus in culture; details: Tick-borne encephalitis virus, A549
[10] = tested on: hPIV3 Rec. JS-GFP; assay: microbe, parasite or virus in culture; details: Human respirovirus 3, HeLa
[11] = tested on: EBOV Rec. Mayinga-GFP (Ebola virus); assay: in vitro; details: human
[12] = tested on: NiV Rec. M-GFP2AM (Nipah virus); assay: in vitro; details: human
[13] = tested on: RVFV Rec. ZH501-GFP; assay: microbe, parasite or virus in culture; type: cell-based, Rift Valley Fever virus
[14] = tested on: NiV M-1999; assay: microbe, parasite or virus in culture; details: Henipavirus nipahense, HeLa
[15] = tested on: DenV; details: cited from earlier work
[16] = tested on: AHFV 200300001; assay: organism not typed; details: A549
[17] = tested on: HCV; details: cited from earlier work
[18] = tested on: RSV Rec. rgRSV224 (A2) (respiratory syncytial virus); assay: in vitro; details: human
[19] = tested on: NiV M-1999
[20] = tested on: MV Rec. rMV^EZGFP(3) (Measles virus); assay: in vitro; details: human
[21] = tested on: EBOV Makona (Ebola virus); assay: in vitro; details: human
[22] = tested on: hPIV3 Rec. JS-GFP (parainfluenza type 3 virus); assay: in vitro; details: human
[23] = tested on: NiV M-1999 (Nipah virus); assay: in vitro; details: human
[24] = tested on: NiV Rec. M-GFP2AM
[25] = Cell viability assay (CellTiter-Glo 2.0), HeLa; details: human, uninfected HeLa cells
[26] = tested on: MuV IA 2006; assay: microbe, parasite or virus in culture; details: Mumps orthorubulavirus, HeLa
[27] = tested on: EBOV Makona
[28] = tested on: MARV Rec. Bat371-GFP; assay: organism not typed; details: Huh-7
[29] = tested on: EBOV Makona; assay: microbe, parasite or virus in culture; details: Zaire ebolavirus, Huh-7
[30] = tested on: EBOV Rec. Mayinga-Gluc (Ebola virus); assay: in vitro; details: human
[31] = tested on: NiV Rec. M-GFP2AM; assay: microbe, parasite or virus in culture; details: Henipavirus nipahense, HeLa
[32] = tested on: NiV Rec. M-Luc2AM
[33] = tested on: EBOV Rec. Mayinga-GFP; assay: microbe, parasite or virus in culture; details: Zaire ebolavirus, Huh-7
[34] = tested on: NiV Rec. M-Luc2AM (Nipah virus); assay: in vitro; details: human
[35] = tested on: NiV B-2004; assay: microbe, parasite or virus in culture; details: Henipavirus nipahense
[36] = tested on: LASV Josiah; assay: microbe, parasite or virus in culture; details: Mammarenavirus lassaense, Huh-7
[37] = tested on: MARV Rec. Bat371-GFP (Marburg virus); assay: in vitro; details: human
[38] = tested on: OHFV Bogoluvovska; assay: microbe, parasite or virus in culture; details: Omsk hemorrhagic fever virus, A549
[39] = tested on: EBOV Rec. Makona-ZSG; assay: microbe, parasite or virus in culture; details: Zaire ebolavirus, Huh-7
[40] = tested on: reporter and wild-type filo-, pneumo-, and paramyxoviruses

N#C[C@@]1(c2ccc3c(N)ncnn23)O[C@H](CO)[C@@H](O)[C@H]1O [Nuc]
EC50 [1]: 1570 ± 780 nM
EC90 [1]: 5700 nM
EC50 [2]: little to no antiviral activity; also recorded: No inhibition
EC50 ([2]; Huh-7): > 50000 nM
EC50 [3]: 630 nM
EC90 [3]: 2200 nM
EC50 [4]: 3100 nM
EC90 [4]: 11000 nM
EC50 [5]: 1300 nM
EC50 [6]: 990 ± 360 nM
EC90 [6]: 2600 nM
EC50 [7]: 1000 nM
selectivity ratio [8]: 38
EC50 [9]: 51200 nM
EC90 [9]: > 150000 nM
EC50 [10]: 520 ± 80 nM
EC90 [10]: 1000 nM
selectivity ratio [11]: 31
selectivity ratio [12]: 22
EC50 [13]: little to no antiviral activity; also recorded: No inhibition
EC50 ([13]; Rift Valley fever virus, Huh-7): > 50000 nM
EC90 [14]: 1400 nM
antiviral activity (active or not) [15]: active
antiviral activity (active or not) ([15]; listed as GS-441524): shown to have activity
EC50 [16]: 49900 ± 2060 nM
EC90 [16]: > 150000 nM
antiviral activity (active or not) [17]: active
antiviral activity (active or not) ([17]; listed as GS-441524): shown to have activity
selectivity ratio [18]: 79
reduction in virus yield [19]: greater than 5
selectivity ratio [20]: 50
selectivity ratio [21]: 50
selectivity ratio [22]: 98
selectivity ratio [23]: 102
EC50 [24]: 2200 nM
CC50 at 72 h [25]: > 50000 nM
EC50 [26]: 7000 to 12000 nM
EC90 [26]: 26300 nM
EC50 [27]: 1000 nM
reduction in virus yield [27]: greater than 5
EC50 [28]: 1860 ± 130 nM
EC90 [28]: 4600 nM
EC50 [29]: 1020 nM
EC90 [29]: 2500 nM
selectivity ratio [30]: 16
EC50 [31]: 2230 ± 1400 nM
EC90 [31]: 4000 nM
EC50 [32]: 1500 nM
EC50 [33]: 1610 ± 120 nM
EC90 [33]: 6700 nM
selectivity ratio [34]: 33
EC50 [35]: 2460 nM
EC50 [36]: > 50000 nM
selectivity ratio [37]: 26
EC50 [38]: 50600 nM
EC90 [38]: > 350000 nM
EC50 [39]: 1280 ± 140 nM
EC90 [39]: 3300 nM
EC50 lower than the 50% cytotoxic concentrations [40]: at least 16 fold
